Where “and” joins values, the source holds several entries; their conditions need not be identical. Identical values can stand only once.
Tests used:
[1] = ELISA reactivity of hybridoma supernatants, Ag = Bt-Compound#1 (second TABLE 1); assay type: binding, mouse
[2] = test system: hybridoma subclone 2A5; assay: Competition ELISA, hybridoma subclone 2A5 supernatant (FIG. 3); assay type: binding, mouse
Procedure: Supernatants were also tested by competition ELISA to determine if the signals were specific to either risperidone or paliperidone. […] In this competitive format as show in FIG. 4, a low level of analyte (risperidone) results in high signal, whereas a high level of analyte (risperidone) results in low signal. The amount of risperidone in the sample can be calculated from the loss of fluorescence compared to a control sample with no drug present.

[3] = Dilution 10800, duplicate wells

Question: Which results are given for “2-(2,5-dioxo-2,5-dihydro-1H-pyrrol-1-yl)-N-(2-((3-(1-(2-(9-hydroxy-2-methyl-4-oxo-6,7,8,9-tetrahydro-4H-pyrido[1,2-a]pyrimidin-3-yl)ethyl)piperidin-4-yl)benzo[d]isoxazol-6-yl)oxy)ethyl)acetamide-keyhole limpet hemocyanin-conjugate [Example 5]”?
Answer: ELISA reactivity ([1]; Dilution 400, duplicate wells): 3.2897 and 3.1103; ELISA reactivity ([1]; Dilution 1200, duplicate wells): 1.4605 and 1.4817; ELISA reactivity ([1]; Dilution 3600, duplicate wells): 0.4617 and 0.4159; ELISA reactivity [1, 3]: 0.1149 and 0.1127

Question: Which ELISA reactivity ([1]; Dilution 400, duplicate wells) does the source give for `Cc1nc2n(c(=O)c1CCN1CCC(c3noc4cc(OCCN)ccc34)CC1)CCCC2O` (stereo not shown) [Example 1, 3-(2-(4-(6-(2-aminoethoxy)benzo[d]isoxazol-3-yl)piperidin-1-yl)ethyl)-9-hydroxy-2-methyl-6,7,8,9-tetrahydro-4H-pyrido[1,2-a]pyrimidin-4-one] here?
Answer: 3.2562 and 3.1217

Question: What about the ELISA reactivity ([1]; Dilution 1200, duplicate wells) of the same molecule?
Answer: 1.3591 and 1.2607

Question: And the ELISA reactivity ([1]; Dilution 3600, duplicate wells)?
Answer: 0.3745 and 0.3281

Question: And the ELISA reactivity [1, 3]?
Answer: 0.0918 and 0.0879

Question: For `Cc1nc2n(c(=O)c1CCN1CCC(c3noc4cc(F)ccc34)CC1)CCCC2O` (stereo not shown) [paliperidone], which “competition ELISA reactivity (in words)” value [2] is on record?
Answer: reactivity

Question: With `Cc1nc2n(c(=O)c1CCN1CCC(c3noc4cc(F)ccc34)CC1)CCCC2` [risperidone] as the molecule, how does the “competition ELISA reactivity (in words)” value [2] read?
Answer: reactivity

Source: patent US9012648B2, “Haptens of risperidone and paliperidone” (Janssen Pharmaceutica NV, priority 2012, dated 2015)
